Assay results as given in ChEMBL document CHEMBL5380861, “Design and Synthesis of Orexin 1 Receptor-Selective Agonists” (J Med Chem, 2023).

tested on: not listed separately; experiment: Ratio of drug concentration in mouse brain to plasma at 40 mg/kg, sc; conditions: not given

| Kp | SMILES |
| --- | --- |
| 0.002 | COc1cccc(CC(=O)N(C)[C@@H]2CCCc3ccc(NS(=O)(=O)c4cc(-c5cccc(C(=O)N(C)C)c5)ccc4OC)cc32)c1 |

target: T1, Orexin/Hypocretin receptor type 1 (Mus musculus, UniProt P58307); experiment: Agonist activity at mouse OX1R expressed in HEK293 cells by AP-TGFalpha reporter assay; conditions: not given
T1 sequence (P58307 whole entry): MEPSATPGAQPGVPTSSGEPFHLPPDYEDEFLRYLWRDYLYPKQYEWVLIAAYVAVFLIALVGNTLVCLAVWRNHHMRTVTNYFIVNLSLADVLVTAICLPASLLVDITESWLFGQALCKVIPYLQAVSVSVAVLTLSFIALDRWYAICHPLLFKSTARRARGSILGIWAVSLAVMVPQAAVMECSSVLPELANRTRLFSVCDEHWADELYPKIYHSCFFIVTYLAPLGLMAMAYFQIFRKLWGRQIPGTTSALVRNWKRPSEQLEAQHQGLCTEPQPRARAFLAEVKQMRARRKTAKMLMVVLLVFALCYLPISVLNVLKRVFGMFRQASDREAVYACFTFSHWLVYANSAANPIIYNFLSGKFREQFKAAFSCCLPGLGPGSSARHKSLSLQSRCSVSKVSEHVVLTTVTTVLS

| EC50 [nM] | SMILES |
| --- | --- |
| 154 | COc1cccc(CC(=O)N(C)[C@@H]2CCCc3ccc(NS(=O)(=O)c4cc(/C=C/C(=O)Nc5ccncc5)ccc4OC)cc32)c1 |
| 174 | COc1cccc(CC(=O)N(C)[C@@H]2CCCc3ccc(NS(=O)(=O)c4cc(-c5cccc(C(=O)N(C)C)c5)ccc4OC)cc32)c1 |

target: T2, Orexin receptor type 2 (Mus musculus, UniProt P58308); experiment: Agonist activity at mouse OX2R expressed in HEK293 cells by AP-TGFalpha reporter assay; conditions: not given
T2 sequence (P58308 whole entry): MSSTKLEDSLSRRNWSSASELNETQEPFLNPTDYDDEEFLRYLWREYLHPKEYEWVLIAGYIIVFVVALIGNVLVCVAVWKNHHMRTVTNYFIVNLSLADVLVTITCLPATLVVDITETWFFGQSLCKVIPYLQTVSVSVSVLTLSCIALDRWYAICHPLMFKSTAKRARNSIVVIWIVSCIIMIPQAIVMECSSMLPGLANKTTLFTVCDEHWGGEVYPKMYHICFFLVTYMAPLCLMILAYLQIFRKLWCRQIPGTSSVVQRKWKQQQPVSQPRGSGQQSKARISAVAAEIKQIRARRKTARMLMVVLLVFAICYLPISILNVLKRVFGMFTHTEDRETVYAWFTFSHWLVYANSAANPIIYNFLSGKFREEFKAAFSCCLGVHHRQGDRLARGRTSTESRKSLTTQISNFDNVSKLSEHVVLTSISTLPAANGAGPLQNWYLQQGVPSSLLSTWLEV

| EC50 [nM] | SMILES |
| --- | --- |
| 457 | COc1cccc(CC(=O)N(C)[C@@H]2CCCc3ccc(NS(=O)(=O)c4cc(/C=C/C(=O)Nc5ccncc5)ccc4OC)cc32)c1 |
| 69 | COc1cccc(CC(=O)N(C)[C@@H]2CCCc3ccc(NS(=O)(=O)c4cc(-c5cccc(C(=O)N(C)C)c5)ccc4OC)cc32)c1 |

target: T3, Orexin/Hypocretin receptor type 1 (Homo sapiens, UniProt O43613); conditions: not given
T3 sequence (O43613 whole entry): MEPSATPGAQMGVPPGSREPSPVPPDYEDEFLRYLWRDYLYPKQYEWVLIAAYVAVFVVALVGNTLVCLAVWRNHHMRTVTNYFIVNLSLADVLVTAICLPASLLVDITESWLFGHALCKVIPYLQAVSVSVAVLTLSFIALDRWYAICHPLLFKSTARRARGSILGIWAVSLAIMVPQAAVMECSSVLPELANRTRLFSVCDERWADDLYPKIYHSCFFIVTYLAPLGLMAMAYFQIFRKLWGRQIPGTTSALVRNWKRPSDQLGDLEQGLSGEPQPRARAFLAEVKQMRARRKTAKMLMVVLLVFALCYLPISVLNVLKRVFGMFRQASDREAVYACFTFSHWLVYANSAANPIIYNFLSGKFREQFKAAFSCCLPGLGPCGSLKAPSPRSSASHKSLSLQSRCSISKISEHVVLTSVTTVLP

| EC50 [nM] | SMILES |
| --- | --- |
| 1280 | COc1cccc(CC(=O)N(C)C2CCCc3ccc(NS(=O)(=O)c4cc(/C=C/C(=O)N(C)C)ccc4OC)cc32)c1 (centres undefined) |
| 476 | COCCNC(=O)/C=C/c1ccc(OC)c(S(=O)(=O)Nc2ccc3c(c2)C(N(C)C(=O)Cc2cccc(OC)c2)CCC3)c1 (centres undefined) |
| 573 | CCCCNC(=O)/C=C/c1ccc(OC)c(S(=O)(=O)Nc2ccc3c(c2)C(N(C)C(=O)Cc2cccc(OC)c2)CCC3)c1 (centres undefined) |
| 607 | COc1cccc(CC(=O)N(C)C2CCCc3ccc(NS(=O)(=O)c4cc(C(=O)N(C)C)ccc4OC)cc32)c1 (centres undefined) |
| 187 | COc1cccc(CC(=O)N(C)C2CCCc3ccc(NS(=O)(=O)c4cc(/C=C/C(=O)N(C)c5ccncc5)ccc4OC)cc32)c1 (centres undefined) |
| 15.3 | COc1cccc(CC(=O)N(C)C2CCCc3ccc(NS(=O)(=O)c4cc(/C=C/C(=O)Nc5ccncc5)ccc4OC)cc32)c1 (racemic) |
| 3590 | COc1cccc(CC(=O)N(C)[C@H]2CCCc3ccc(NS(=O)(=O)c4cc(/C=C/C(=O)Nc5ccncc5)ccc4OC)cc32)c1 |
| 472 | COc1cccc(CC(=O)N(C)C2CCCc3ccc(NS(=O)(=O)c4cc(/C=C/C(=O)Nc5ccccc5)ccc4OC)cc32)c1 (centres undefined) |

Continued, compound first:

| SMILES | EC50 [nM] |
| --- | --- |
| COc1cccc(CC(=O)N(C)C2CCCc3ccc(NS(=O)(=O)c4cc(-c5ccccc5)ccc4OC)cc32)c1 (centres undefined) | 5920 |
| COc1cccc(CC(=O)N(C)C2CCCc3ccc(NS(=O)(=O)c4cc(/C=C/C(=O)Nc5cccnc5)ccc4OC)cc32)c1 (centres undefined) | 43.4 |
| CNC(=O)/C=C/c1ccc(OC)c(S(=O)(=O)Nc2ccc3c(c2)C(N(C)C(=O)Cc2cccc(OC)c2)CCC3)c1 (centres undefined) | 501 |
| COc1cccc(CC(=O)N(C)[C@@H]2CCCc3ccc(NS(=O)(=O)c4cc(/C=C/C(=O)Nc5ccncc5)ccc4OC)cc32)c1 | 747 |
| COc1cccc(CC(=O)N(C)C2CCCc3ccc(NS(=O)(=O)c4cc(/C=C/C(N)=O)ccc4OC)cc32)c1 (centres undefined) | 581 |
| COc1cccc(CC(=O)N(C)C2CCCc3ccc(NS(=O)(=O)c4cc(CC(=O)N(C)C)ccc4OC)cc32)c1 (centres undefined) | 1040 |
| COc1cccc(CC(=O)N(C)C2CCCc3ccc(NS(=O)(=O)c4cc(/C=C/C(=O)NCCN(C)C)ccc4OC)cc32)c1 (centres undefined) | 271 |
| COc1cccc(CC(=O)N(C)C2CCCc3ccc(NS(=O)(=O)c4cc(CCC(=O)N(C)C)ccc4OC)cc32)c1 (centres undefined) | 1760 |
| COc1cccc(CC(=O)N(C)C2CCCc3ccc(NS(=O)(=O)c4cc(/C=C/C(=O)Nc5ccccn5)ccc4OC)cc32)c1 (centres undefined) | 201 |

target: T4, Orexin receptor type 2 (Homo sapiens, UniProt O43614); conditions: not given
T4 sequence (O43614 whole entry): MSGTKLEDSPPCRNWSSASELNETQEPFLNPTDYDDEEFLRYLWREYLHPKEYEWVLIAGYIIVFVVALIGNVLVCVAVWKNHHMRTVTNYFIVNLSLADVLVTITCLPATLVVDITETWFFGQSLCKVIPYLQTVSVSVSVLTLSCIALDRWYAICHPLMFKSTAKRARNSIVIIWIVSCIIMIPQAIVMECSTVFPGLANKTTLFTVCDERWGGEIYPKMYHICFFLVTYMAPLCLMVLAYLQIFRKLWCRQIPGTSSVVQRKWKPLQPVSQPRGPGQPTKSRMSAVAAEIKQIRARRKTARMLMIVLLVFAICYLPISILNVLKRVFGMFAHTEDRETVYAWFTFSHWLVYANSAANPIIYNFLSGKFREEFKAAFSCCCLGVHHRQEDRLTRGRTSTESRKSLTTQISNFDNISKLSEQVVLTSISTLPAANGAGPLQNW

| EC50 [nM] | SMILES |
| --- | --- |
| > 10000 | COc1cccc(CC(=O)N(C)C2CCCc3ccc(NS(=O)(=O)c4cc(/C=C/C(=O)N(C)C)ccc4OC)cc32)c1 (centres undefined) |
| > 10000 | COCCNC(=O)/C=C/c1ccc(OC)c(S(=O)(=O)Nc2ccc3c(c2)C(N(C)C(=O)Cc2cccc(OC)c2)CCC3)c1 (centres undefined) |
| > 10000 | CCCCNC(=O)/C=C/c1ccc(OC)c(S(=O)(=O)Nc2ccc3c(c2)C(N(C)C(=O)Cc2cccc(OC)c2)CCC3)c1 (centres undefined) |
| 1020 | COc1cccc(CC(=O)N(C)C2CCCc3ccc(NS(=O)(=O)c4cc(CCCC(=O)N(C)C)ccc4OC)cc32)c1 (centres undefined) |
| 146 | COc1cccc(CC(=O)N(C)C2CCCc3ccc(NS(=O)(=O)c4cc(C(=O)N(C)C)ccc4OC)cc32)c1 (centres undefined) |
| 275 | COc1cccc(CC(=O)N(C)C2CCCc3ccc(NS(=O)(=O)c4cc(/C=C/C(=O)N(C)c5ccncc5)ccc4OC)cc32)c1 (centres undefined) |
| 3290 | COc1cccc(CC(=O)N(C)C2CCCc3ccc(NS(=O)(=O)c4cc(/C=C/C(=O)Nc5ccccc5)ccc4OC)cc32)c1 (centres undefined) |

The remaining lines, values behind:

| SMILES | EC50 [nM] |
| --- | --- |
| COc1cccc(CC(=O)N(C)C2CCCc3ccc(NS(=O)(=O)c4cc(-c5ccccc5)ccc4OC)cc32)c1 (centres undefined) | 1290 |
| COc1cccc(CC(=O)N(C)C2CCCc3ccc(NS(=O)(=O)c4cc(/C=C/C(=O)Nc5cccnc5)ccc4OC)cc32)c1 (centres undefined) | 295 |
| CNC(=O)/C=C/c1ccc(OC)c(S(=O)(=O)Nc2ccc3c(c2)C(N(C)C(=O)Cc2cccc(OC)c2)CCC3)c1 (centres undefined) | > 10000 |
| COc1cccc(CC(=O)N(C)C2CCCc3ccc(NS(=O)(=O)c4cc(/C=C/C(=O)NCCN(C)C)ccc4OC)cc32)c1 (centres undefined) | 2410 |
| COc1cccc(CC(=O)N(C)C2CCCc3ccc(NS(=O)(=O)c4cc(/C=C/C(=O)Nc5ccccn5)ccc4OC)cc32)c1 (centres undefined) | 955 |

tested on: not listed separately; experiment: Drug concentration in mouse brain at 40 mg/kg, sc; format: ADME, organism-based; conditions: in vivo

| Ct [pmol/g] | SMILES |
| --- | --- |
| 137 | COc1cccc(CC(=O)N(C)[C@@H]2CCCc3ccc(NS(=O)(=O)c4cc(/C=C/C(=O)Nc5ccncc5)ccc4OC)cc32)c1 |
| 61.1 | COc1cccc(CC(=O)N(C)[C@@H]2CCCc3ccc(NS(=O)(=O)c4cc(-c5cccc(C(=O)N(C)C)c5)ccc4OC)cc32)c1 |

target: T3, Orexin/Hypocretin receptor type 1; experiment: Agonist activity at OX1R (unknown origin); conditions: not given

| EC50 [nM] | SMILES |
| --- | --- |
| 36000 | COc1ccc(-c2cccc(C(=O)N(C)C)c2)cc1S(=O)(=O)Nc1cccc(CCNC(=O)c2ccccc2-n2nccn2)c1 |

tested on: not listed separately; experiment: Drug concentration in mouse plasma at 40 mg/kg, sc; format: ADME, organism-based; conditions: in vivo

| concentration [µM] | SMILES |
| --- | --- |
| 32 | COc1cccc(CC(=O)N(C)[C@@H]2CCCc3ccc(NS(=O)(=O)c4cc(/C=C/C(=O)Nc5ccncc5)ccc4OC)cc32)c1 |
| 25 | COc1cccc(CC(=O)N(C)[C@@H]2CCCc3ccc(NS(=O)(=O)c4cc(-c5cccc(C(=O)N(C)C)c5)ccc4OC)cc32)c1 |
